Results on 5 compounds are retold here after patent US10464920B2, “Vicinal primary diamines associated with metal and/or free radical chelation motifs, and active against carbonyl and oxidative stress, and use thereof” (UNIVERSITE AMIENS PICARDIE JULES VERNE, priority 2015, dated 2019).

Data set [1] relates to low-density lipoproteins (LDLs). The data set can be described thus: Antiradical properties: inhibition of lipid peroxidation in AAPH-induced oxidation of LDLs. The following applies: for anti-radical properties compared with Dap-Pip and vitamin E: concentrations from 1 to 10 μM; for antioxidant effect: concentrations ranging from 1 to 100; for antioxidant properties: low concentrations of about 1 μM. Type of data set: biochemical. How it is done:
The antiradical properties of the various compounds are determined by inhibition of the lipid peroxidation in the in vitro model of the oxidation of the low-density lipoproteins (LDLs) (Free Radic. Biol. Med., 1992, 13, 341-390). The lipid peroxidation is initiated by the attack by free radicals of a double bond of a polyunsaturated fatty acid present in the LDLs. […] Once initiated, the oxidation of the LDLs is a chain reaction of lipid peroxidation generated by the free radicals. The oxidation in vitro of the LDLs is induced at 37° C. by the adding of the water-soluble compound 2,2′-Azobis(2-methylpropionamidine)dihydrochloride (AAPH), which generates free radicals during the spontaneous thermal breakdown thereof
Briefly, the oxidation, carried out in a 96-well plate, is induced at 37° C. by adding 20 μL of a solution of AAPH at 2 mM in D-PBS at 160 μL of LDL (100 μg/mL) in the presence or absence of 20 μL of the various solutions of the compounds to be tested dissolved in D-PBS (0.1 to 100 μM in final concentrations). The LDLs alone without adding AAPH are used as a negative control. Each oxidation is carried out in double. During the oxidation, the formation of the conjugated dienes is followed by the measurement of the optical density at 234 nm every 10 minutes for 8 h at 37° C. using a temperature-controlled TECAN spectrophotometer. The vitamin E (α-tocopherol) which is a powerful antioxidant recognised in this in vitro model is used as a reference molecule (J. Nutr. Biochem., 2012, 23, 845-51).

The test system of data set [2] is rat pheochromocytoma cells, treated as neuronal cells (PC12). Briefly: Cytotoxicity, cellular viability (CCK-8/WST-8) on PC12. It is filed as cell-based. The following applies: rat. As for the experimental part: The cellular viability is evaluated by a colorimetric method based on the detection of the conversion of a salt of the tetrazolium (WST-8) by the metabolically active cells (CCK-8 kit, Sigma, Lyons, France) (Molecules, 2014, 19(8), 12048-12064; J. Pharmacol. Toxicol. Methods., 2007, 56(1), 58-62). Living cells have mitochondrial dehydrogenases that reduce the WST-8 (2-(2-methoxy-4-nitrophenyl)-3-(4-nitrophenyl)-5-(2,4-disulfophenyl)-2H-tetrazolium), monosodium salt) to formazan of an orange colour, which dissolves directly in the culture medium in the presence of 1-Methoxy PMS (1-methoxy-5-methylphenazinium methyl sulphate). After an incubation for 1 h at 37° C., the absorbance of the formazan is measured at 450 nm. The absorbance is directly proportional to the number of living cells.
Briefly, the cells are inoculated in 96-well plates at a rate of 5.10^3 cells per well in 100 μL of the suitable medium until subconfluence. The cells are then washed with D-PBS, then treated with various concentrations (10 μM, 100 μM) of the products to be tested in triplicates for 24 and 48 h. A positive control is carried out with 10% of DMSO. The CCK-8 (10 μL) solution is then added to each well for an incubation for 1 h at 37° C. The measurement of the absorbance is taken at 450 nm using a Perkin Elmer 2103 Envision® microplate reader.
The viability of the cells is expressed as a % of the control (untreated cells) by the mean±standard deviation of triplicates forming a representative experiment or of three independent experiments conducted in triplicate.

Data set [3] in a line: Cu2+ chelating properties by UV/Visible light spectrophotometry (murexide). It is filed as physicochemical. The following applies: 0.02-2 mM compound, CuSO4 0.25 mM solution, Hexamine buffer pH 5, RT 10 min. How it is done:
J. Mol. Sci., 2009, 10, 5485-5497; Molecules, 2012, 17, 13457-13472). […] A Hexamine buffer 0.01 M/KCl 0.01 M (qsp 200 mL) of which the pH is adjusted to 5 using a solution of HCl 1N is first of all prepared. Solutions of CuSO4.5H2O at 0.5 mM (20 mL) and 0.25 mM (100 mL) are then carried out in this buffer, with the first being used to obtain the calibration curve. An aqueous solution of murexide at 1 mM must also be prepared extemporaneously (10 mL) as well as a stock solution of the compounds to be tested at 4.2 mM in Hexamine buffer 0.01 M/KCl 0.01 M or in a buffer and MeOH 75/25 mixture (6.2 mL). Various concentrations of the compounds to be tested are distributed in Hexamine buffer 0.01M/KCl 0.01M (pH=5) (Table 5) or in a buffer and MeOH 75/25 mixture in tubes for hemolysis (Table 6). The solution of CuSO4.5H2O at 0.25 mM (1 mL) is then added and this is allowed to incubate at RT for 10 min. Finally, the aqueous solution of murexide at 1 mM (0.1 mL) is introduced and is again allowed to incubate at RT for 1 min. The absorbances are then measured at 485 nm ([…]) and 520 nm ([…]) by UV/Visible light spectrophotometry (V-650 JASCO spectrometer) (measurements taken in triplicates). […] After introduction of the aqueous solution of murexide at 1 mM (0.1 mL), this is allowed to incubate at RT for 1 min and the absorbances are finally measured at 485 nm ([…]) and 520 nm ([…]) by UV/Visible light spectrophotometry.

The mark [4] stands for this setting: lower concentrations, 0.1 to 10 μM.

For `NCC(N)CCCNC(=O)CCn1cccc(O)c1=O` (stereo not shown) [Compound 37a, N-(4,5-diaminopentyl)-3-(3-hydroxy-2-oxopyridin-1(2H)-yl)propanamide], the “anti-radical properties compared with Dap-Pip and vitamin E” value in data set [1] was “higher than those of the 2nd generation Dap-Pip derivative, and even those of vitamin E”. For the same compound, the antioxidant effect result in data set [1] was “increasing antioxidant effect”. Further, the antioxidant properties entry in data set [1] is reported as “best antioxidant properties”. The “viability of the cells as a percentage of the untreated cells” value in data set [2] (24 h, 10 μM) is on record as 93%; in data set [2] (24 h, 100 μM), 112%; in data set [2] (48 h, 10 μM), 96%; in data set [2] (48 h, 100 μM), 99%.

Consider `NCC(N)CCCCNC(=O)c1cc(O)c(O)c(O)c1` (stereo not shown) [Compound 30b, N-(5,6-diaminohexyl)-3,4,5-trihydroxybenzamide], for which, in data set [3], the “Cu^2+ chelating properties (complexation of the Cu^2+)” value (“Cu^2+ chelating properties” below) is given as “most active”. For the same compound, the “anti-radical properties compared with Dap-Pip and vitamin E” value in data set [1] is “higher than those of the 2nd generation Dap-Pip derivative, and even those of vitamin E”. For the same compound, the “antioxidant / pro-oxidant behaviour” value in data set [1] (concentrations ranging from 50 to 100) is reported as “highly pro-oxidant”; in data set [1] (setting [4]), “highly antioxidant”. In addition, the “viability of the cells as a percentage of the untreated cells” value in data set [2] (24 h, 10 μM) came out at 110%; in data set [2] (24 h, 100 μM), 82%; in data set [2] (48 h, 10 μM), 95%; in data set [2] (48 h, 100 μM), 67%.

Regarding `NCC(N)CCCCNC(=O)CCn1cccc(O)c1=O` (stereo not shown) [Compound 37b, N-(5,6-diaminohexyl)-3-(3-hydroxy-2-oxopyridin-1(2H)-yl)propanamide], the “Cu^2+ chelating properties” value in data set [3] is given as “most active”. Moreover, the “viability of the cells as a percentage of the untreated cells” value in data set [2] (24 h, 10 μM) was found to be 138%; in data set [2] (24 h, 100 μM) it was 124%; in data set [2] (48 h, 10 μM), 115%; in data set [2] (48 h, 100 μM), 107%.

For the compound `NCC(N)CCC(=O)NCCCn1cccc(O)c1=O` (stereo not shown) [Compound 37c, 4,5-diamino-N-(3-(3-hydroxy-2-oxopyridin-1(2H)-yl)propyl)pentanamide], in data set [1], the “anti-radical properties compared with Dap-Pip and vitamin E” value was “higher than those of the 2nd generation Dap-Pip derivative, and even those of vitamin E”. Besides, the antioxidant effect entry in data set [1] is on record as “increasing antioxidant effect”. In addition, the antioxidant properties entry in data set [1] is “best antioxidant properties”. For the same compound, the “viability of the cells as a percentage of the untreated cells” value in data set [2] (24 h, 10 μM) came out at 110%; in data set [2] (24 h, 100 μM), 102%; in data set [2] (48 h, 10 μM), 91%; in data set [2] (48 h, 100 μM), 94%.

As for `COc1cc(/C=C/C(=O)N2CCN(C(=O)CCC(N)CN)CC2)ccc1O` (stereo not shown) [Compound 29a, (E)-4,5-diamino-1-(4-(3-(4-hydroxy-3-methoxyphenyl)acryloyl)piperazin-1-yl)pentan-1-one], the “Cu^2+ chelating properties” value in data set [3] was “poor results”. Also, the “antioxidant / pro-oxidant behaviour” value is “antioxidants” in data set [1] (concentrations ranging from 25 to 100) and “pro-oxidants” in data set [1] (setting [4]). Further, the “viability of the cells as a percentage of the untreated cells” value amounted to 100% in data set [2] (24 h, 10 μM); 120% in data set [2] (24 h, 100 μM); 94% in data set [2] (48 h, 10 μM); 87% in data set [2] (48 h, 100 μM).
